Measured values from ChEMBL document CHEMBL1154543, “Facile synthesis and biological evaluation of a cell-permeable probe to detect redox-regulated proteins” (Bioorg Med Chem Lett, 2009).
Calls of active or inactive are those of the source. No cut-off for these calls is given here.

What was measured:
[1] = target: Glyceraldehyde-3-phosphate dehydrogenase (Homo sapiens) (UniProt P04406); test: Binding affinity to sulfenic acid modified GAPDH in human HeLa cells at 10 mM by Western blot; format: cell-based
Chain of Glyceraldehyde-3-phosphate dehydrogenase (Homo sapiens) (P04406 2-335 limits assumed): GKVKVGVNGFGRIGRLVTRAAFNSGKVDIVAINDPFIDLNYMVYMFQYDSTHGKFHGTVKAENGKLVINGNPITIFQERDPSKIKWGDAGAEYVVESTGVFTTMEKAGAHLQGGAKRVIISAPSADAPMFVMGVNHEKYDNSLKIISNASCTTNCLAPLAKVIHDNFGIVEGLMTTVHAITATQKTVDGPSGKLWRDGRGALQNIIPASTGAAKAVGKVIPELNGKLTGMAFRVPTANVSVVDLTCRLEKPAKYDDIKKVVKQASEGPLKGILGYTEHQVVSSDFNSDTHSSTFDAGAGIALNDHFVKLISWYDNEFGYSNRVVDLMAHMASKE

HeLa [2] = test: Binding affinity to sulfenic acid modified actin in human HeLa cells at 10 mM by Western blot; format: cell-based
[3] = Binding affinity to Cdc25A C384S mutant assessed as protein labeling based detection of sulfenic acid modification at 20 uM in presence of 5 mM DTT by Western blot
[4] = Binding affinity to Cdc25A C384S mutant assessed as protein labeling based detection of sulfenic acid modification at 10 mM by Western blot
[5] = target: Glyceraldehyde-3-phosphate dehydrogenase (Homo sapiens) (UniProt P04406); test: Binding affinity to sulfenic acid modified GAPDH by Western blot
[6] = target: Glyceraldehyde-3-phosphate dehydrogenase (Homo sapiens) (UniProt P04406); test: Inhibition of DAz1-biotin binding to sulfenic acid modified GAPDH at 250 uM by Western blot
[7] = target: T1, Peroxiredoxin-1 (Homo sapiens) (UniProt Q06830); test: Binding affinity to sulfenic acid modified peroxiredoxin human HeLa cells at 10 mM by Western blot; format: cell-based
T1 sequence (whole entry): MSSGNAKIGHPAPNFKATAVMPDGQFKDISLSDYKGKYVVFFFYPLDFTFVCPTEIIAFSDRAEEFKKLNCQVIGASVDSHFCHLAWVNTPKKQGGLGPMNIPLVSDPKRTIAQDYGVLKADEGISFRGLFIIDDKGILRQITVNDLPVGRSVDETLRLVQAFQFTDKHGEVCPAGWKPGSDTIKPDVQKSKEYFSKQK

HeLa [8] = test: Toxicity against human HeLa cells after 2 hrs by trypan blue exclusion method; format: cell-based

Activity [1]: Active | Activity [3]: inactive | Activity [4]: Active | Activity [5]: Active | inhibition [6]: 90% | Activity [7]: Active
SMILES: [N-]=[N+]=NCCCNC(=O)C1CC(=O)CC(=O)C1
Activity (HeLa [2]): Active | Activity (HeLa [8]): Non-toxic
